How the values were obtained:
in vivo [1] = conditions: Sprague-Dawley, rat, iv, 5 mg/kg
in vivo [2] = conditions: Sprague-Dawley, rat
in vivo [3] = conditions: Sprague-Dawley, rat, po, 10 mg/kg
[4] = Metabolic stability in Beagle dog hepatocytes; format: ADME, cell-based, Canis lupus familiaris, Hepatocyte
[5] = Metabolic stability in rhesus monkey hepatocytes; format: ADME, cell-based, Macaca mulatta, Hepatocyte
Hepatocyte [6] = assay: Metabolic stability in Sprague-Dawley rat hepatocytes; format: ADME, cell-based
Hepatocyte [7] = assay: Metabolic stability in human hepatocytes; format: ADME, cell-based
[8] = Metabolic stability in cynomolgus monkey hepatocytes; format: ADME, cell-based, Macaca fascicularis, Hepatocyte
[9] = Volume of distribution at steady state in rhesus monkey at 1 mg/kg, po and 0.5 mg/kg, iv; format: ADME, organism-based, Macaca fascicularis; conditions: cynomolgus monkey, in vivo, read-out: Vdss
[10] = Volume of distribution at steady state in Beagle dog at 1 mg/kg, po and 0.5 mg/kg, iv; format: ADME, organism-based, Canis lupus familiaris; conditions: in vivo, read-out: Vdss
[11] = Volume of distribution at steady state in Sprague-Dawley rat at 10 mg/kg, po and 5 mg/kg, iv; format: ADME, organism-based; conditions: in vivo, read-out: Vdss
[12] = Volume of distribution at steady state in cynomolgus monkey at 1 mg/kg, po and 0.5 mg/kg, iv; format: ADME, organism-based, Macaca fascicularis; conditions: in vivo, read-out: Vdss
[13] = Terminal half life in Beagle dog at 1 mg/kg, po and 0.5 mg/kg, iv; format: ADME, organism-based, Canis lupus familiaris; conditions: in vivo
[14] = Clearance in cynomolgus monkey at 1 mg/kg, po and 0.5 mg/kg, iv; format: ADME, organism-based, Macaca fascicularis; conditions: in vivo
[15] = Oral bioavailability in rhesus monkey at 1 mg/kg; format: ADME, organism-based, Macaca mulatta; conditions: in vivo
[16] = Terminal half life in cynomolgus monkey at 1 mg/kg, po and 0.5 mg/kg, iv; format: ADME, organism-based, Macaca fascicularis; conditions: in vivo
[17] = Clearance in rhesus monkey at 1 mg/kg, po and 0.5 mg/kg, iv; format: ADME, organism-based, Macaca fascicularis; conditions: cynomolgus monkey, in vivo
[18] = Terminal half life in rhesus monkey at 1 mg/kg, po and 0.5 mg/kg, iv; format: ADME, organism-based, Macaca fascicularis; conditions: cynomolgus monkey, in vivo
[19] = Oral bioavailability in Beagle dog at 1 mg/kg; format: ADME, organism-based, Canis lupus familiaris; conditions: in vivo
[20] = Clearance in Beagle dog at 1 mg/kg, po and 0.5 mg/kg, iv; format: ADME, organism-based, Canis lupus familiaris; conditions: in vivo
[21] = Oral bioavailability in cynomolgus monkey at 1 mg/kg; format: ADME, organism-based, Macaca fascicularis; conditions: in vivo

Row | Stability [4] | Stability [5] | Stability (Hepatocyte [6]) | Stability (Hepatocyte [7]) | Stability [8] | SMILES | clearance (in vivo [1]) | half-life (in vivo [2]) | bioavailability (in vivo [3]) | other results
1 |  |  |  |  |  | CN([C@@H]1CCc2c(CC(=O)O)c3cccc(F)c3n2C1)S(=O)(=O)c1ccc(F)cc1 | 0.4 mL/min/kg | 16 h | 62% | 
2 | Stable | Stable | Stable | Stable | Stable | CN([C@@H]1CCc2c(CC(=O)O[C@@H]3O[C@H](C(=O)O)[C@@H](O)[C@H](O)[C@H]3O)c3ccccc3n2C1)S(=O)(=O)c1ccc(F)cc1 |  |  |  | 
3 | Stable | Stable | Stable | Stable | Stable | CN([C@@H]1CCc2c(CC(=O)O)c3ccccc3n2C1)S(=O)(=O)c1ccc(F)cc1 [MK-7246] | 2.2 mL/min/kg | 5.6 h | 107% | Vd [9]: 2.6 L/kg; Vd [10]: 2.3 L/kg; Vd [11]: 0.98 L/kg; Vd [12]: 0.5 L/kg; half-life [13]: 8.4 h; clearance [14]: 4.8 mL/min/kg; bioavailability [15]: 57%; half-life [16]: 11 h; clearance [17]: 6.9 mL/min/kg; half-life [18]: 8.1 h; bioavailability [19]: 5.6%; clearance [20]: 15 mL/min/kg; bioavailability [21]: 10%
